Laboratory results from patent US6380181B1, “Synthetic catechol derivatives, method for production and use thereof” (priority 1996, dated 2002).
In brackets after ≈: the same amount, converted by molar mass.

What was measured:
Assay type in all cases: cell-based
E. coli DC0 (wild type) = test: Agar diffusion test; details: concentration 100 μg/ml
[1] = system: Stenotrophomonas maltophilia GN 12873; test: Agar diffusion test; details: concentration 100 μg/ml
[2] = system: Pseudomonas aeruginosa KW 799 WT; test: Microdilution test (MIC); details: P. aeruginosa KW 799/WT
Protocol: (§1) The minimum inhibiting concentrations (MICs) were determined for the following bacterial strains: Pseudomonas aeruginosa NCTC 10701, NCTC 10662, SG 137, ATCC 27853, KW 799 WT and KW 799/61, E. coli DCO, DC2 and ATCC 25922, Serratia marcescens SG 621; Salmonella gallinarum ATCC 9184, Klebsiella pneumoniae ATCC 10031 and SG 117.
(§2) With the test germs KW 799/WT and /61 of Pseudomonas and DCO and DC2 of E. coli, the effect of improved penetration capacity on the efficacy of the substances was investigated.

[3] = system: Pseudomonas aeruginosa KW 799/61; test: Microdilution test (MIC)
Protocol: as §1, §2

E. coli DC0 = test: Microdilution test (MIC); details: E. coli DC0
Protocol: as §1, §2

[4] = system: E. coli DC2 (penetration mutant); details: concentration 100 μg/ml
[5] = system: Salmonella gallinarum ATCC 9184; details: concentration 100 μg/ml; Salmonella galinarum ATCC 9184
[6] = system: Pseudomonas aeruginosa SG 137 (carbenicillin-resistant); test: Agar diffusion test; details: concentration 100 μg/ml; P. aeruginosa SG 137
[7] = system: Serratia marcescens SG 621; test: Microdilution test (MIC)
Protocol: as §1

[8] = system: Pseudomonas aeruginosa SG 137; test: Microdilution test (MIC); details: P. aeruginosa SG 137
Protocol: as §1

[9] = system: Pseudomonas aeruginosa KW 799 WT (wild type); test: Agar diffusion test; details: concentration 100 μg/ml; P. aeruginosa KW799/WT
[10] = system: Pseudomonas aeruginosa KW 799/61 (penetration mutant); details: concentration 100 μg/ml; P. aeruginosa KW799/61
[11] = system: Stenotrophomonas maltophilia IMET 10402; test: Agar diffusion test; details: concentration 100 μg/ml
[12] = system: Pseudomonas aeruginosa ATCC 9027 (wild type); test: Agar diffusion test; details: concentration 100 μg/ml; P. aeruginosa ATCC 9027
[13] = system: Pseudomonas aeruginosa NCTC 10701; test: Agar diffusion test; details: concentration 100 μg/ml; P. aeruginosa NCTC 10701
[14] = system: Klebsiella pneumoniae SG 117; test: Agar diffusion test; details: concentration 100 μg/ml
[15] = system: Pseudomonas aeruginosa NPS1 (plasmid-coded β-lactamase); details: concentration 100 μg/ml; P. aeruginosa NPS 1
[16] = system: Salmonella gallinarum ATCC 9184; test: microbe, parasite or virus in culture; details: Salmonella enterica; Salmonella gallinarum ATCC9184; read-out: MIC values, microdilution test
Protocol: as §1

[17] = system: Stenotrophomonas maltophilia GN 12873; test: Microdilution test (MIC)
[18] = system: Pseudomonas aeruginosa NCTC 10662; test: Agar diffusion test; details: concentration 100 μg/ml; P. aeruginosa NCTC 10662
[19] = system: Pseudomonas aeruginosa ATCC 27853 (wild type); test: Agar diffusion test; details: concentration 100 μg/ml; P. aeruginosa ATCC 27853
[20] = system: Pseudomonas aeruginosa Oxa6 (plasmid-coded β-lactamase); details: concentration 100 μg/ml; P. aeruginosa OXA 6
[21] = system: E. coli mutant PLB3268 ompF++; details: E. coli mutant PLB3268 ompF++ (ompF super-expressed)
Text: (§3) The efficacy against β-lactamase formers and against multi-resistant germs is therefore due to a new type of mechanism for overcoming the penetration resistance, by means of which the ratio of active ingredient to enzyme in the bacterial cell is influenced so that not all antibiotic molecules are inactivated before they reach their target.
PLB268: ompF- was super-expressed.

E. coli ATCC 25922 = test: Microdilution test (MIC)
Protocol: as §1

[22] = system: Pseudomonas aeruginosa ATCC 27853; test: Microdilution test (MIC); details: Pseudomonas aeruginosa, ATCC27853; P. aeruginosa ATCC 27853
Protocol: as §1

[23] = system: Pseudomonas aeruginosa NCTC 10701; test: Microdilution test (MIC); details: Pseudomonas aeruginosa, NCTC10701; P. aeruginosa NCTC 10701
Protocol: as §1

[24] = system: Pseudomonas aeruginosa NCTC 10662; test: Microdilution test (MIC); details: P. aeruginosa NCTC 10662
Protocol: as §1

[25] = system: Klebsiella pneumoniae ATCC 10031; test: Microdilution test (MIC)
Protocol: as §1

E. coli mutant KB5 ompC− = system: E. coli mutant KB5 ompC−
Text: as §3

E. coli mutant KB4 ompF− = system: E. coli mutant KB4 ompF−
Text: as §3

E. coli DC2 = test: microbe, parasite or virus in culture
Protocol: as §1, §2

E. coli AB2847 tonB+ = system: E. coli AB2847 tonB+
[26] = system: E. coli mutant BR185 tonB−
[27] = Escherichia coli, read-out: MIC values, microdilution test

SMILES	inhibition spot diameter in the agar diffusion test (E. coli DC0 (wild type)) [mm]	inhibition spot diameter in the agar diffusion test [1] [mm]	MIC values, microdilution test [2] [µg/mL]	MIC values, microdilution test [3] [µg/mL]	MIC values, microdilution test (E. coli DC0) [µg/mL]	inhibition spot diameter in the agar diffusion test [4] [mm]	inhibition spot diameter in the agar diffusion test [5] [mm]	inhibition spot diameter in the agar diffusion test [6] [mm]	MIC values, microdilution test [7] [µg/mL]	MIC values, microdilution test [8] [µg/mL]	inhibition spot diameter in the agar diffusion test [9] [mm]	inhibition spot diameter in the agar diffusion test [10] [mm]	inhibition spot diameter in the agar diffusion test [11] [mm]	inhibition spot diameter in the agar diffusion test [12] [mm]	inhibition spot diameter in the agar diffusion test [13] [mm]	inhibition spot diameter in the agar diffusion test [14] [mm]	inhibition spot diameter in the agar diffusion test [15] [mm]	inhibition spot diameter in the agar diffusion test [20] [mm]	inhibition spot diameter in agar diffusion test [21] [mm]	inhibition spot diameter in agar diffusion test (E. coli mutant KB5 ompC−) [mm]	further results
CC(=O)OC[C@H](NC(=O)c1cccc(OC(C)=O)c1OC(C)=O)C(=O)N[C@@H](C(=O)N[C@@H]1C(=O)N2[C@@H]1SC(C)(C)[C@@H]2C(=O)O)c1ccccc1 [Substance 32, N-[L-3-Acetoxy-2-(2,3-diacetoxybenzoylamino)-propionyl]-ampicillin]	22	19	1.56 (≈ 2.23 µM)	0.4 (≈ 0.572 µM)	12.5 (≈ 17.9 µM)	28	28	16	25 (≈ 35.8 µM)	1.56 (≈ 2.23 µM)	25	32	–	–	–	–	–	–	–	–	–
CC1(C)S[C@@H]2[C@H](NC(=O)[C@H](N)c3ccccc3)C(=O)N2[C@H]1C(=O)O [Ampicillin, reference compound]	22	0	–	–	–	32	34	0	–	–	0	41	0	0	0	19	0	0	17.5	9.5	MIC [16]: 0.2 µg/mL (≈ 0.572 µM); MIC ([17]; GN12873): > 100 µg/mL; inhibition spot diameter in the agar diffusion test [18]: 0 mm; MIC ([2]; Pseudomonas aeruginosa, KW799WT): > 100 µg/mL; MIC ([3]; Pseudomonas aeruginosa, KW799/61, P. aeruginosa KW 799/61): 0.4 µg/mL (≈ 1.14 µM); MIC (E. coli DC0; [27]): 6.25 µg/mL (≈ 17.9 µM); inhibition spot diameter in the agar diffusion test [19]: 0 mm; MIC ([7]; SG621): 25 µg/mL (≈ 71.5 µM); MIC ([8]; Pseudomonas aeruginosa, SG137): > 100 µg/mL; MIC (E. coli ATCC 25922; Escherichia coli, ATCC25922): 6.25 µg/mL (≈ 17.9 µM); MIC [22]: > 100 µg/mL; MIC [23]: > 100 µg/mL; MIC ([24]; Pseudomonas aeruginosa, NCTC10662): > 100 µg/mL; MIC ([25]; ATCC10031): 50 µg/mL (≈ 143 µM); inhibition spot diameter in agar diffusion test (E. coli mutant KB4 ompF−): 10 mm; MIC (E. coli DC2; [27]): 1.56 µg/mL (≈ 4.46 µM)
CC(=O)Oc1cccc(C(=O)Nc2ccc(C(=O)N[C@@H](C(=O)N[C@@H]3C(=O)N4[C@@H]3SC(C)(C)[C@@H]4C(=O)O)c3ccccc3)cc2)c1OC(C)=O [Substance 29]	22	19	3.12 (≈ 4.53 µM)	0.4 (≈ 0.581 µM)	50 (≈ 72.6 µM)	28	22	28	25 (≈ 36.3 µM)	0.78 (≈ 1.13 µM)	27	33	23	21	23	15	12	13	14	7	MIC values, microdilution test [17]: 12.5 µg/mL (≈ 18.1 µM); inhibition spot diameter in agar diffusion test (E. coli AB2847 tonB+): 6 mm; inhibition spot diameter in agar diffusion test [26]: 0 mm; MIC values, microdilution test (E. coli ATCC 25922): 100 µg/mL (≈ 145 µM); MIC values, microdilution test [24]: 12.5 µg/mL (≈ 18.1 µM); MIC values, microdilution test [25]: 50 µg/mL (≈ 72.6 µM); inhibition spot diameter in agar diffusion test (E. coli mutant KB4 ompF−): 9.5 mm; MIC values, microdilution test (E. coli DC2): 1.56 µg/mL (≈ 2.27 µM)
